Usually IC50 stands for the midpoint of a concentration-inhibition curve. A high value points to lower potency.

The text below walks through data of patent US11530181B2, “IL-6 inhibitors and methods of treatment” (University of Florida Research Foundation, Incorporated, priority 2018, dated 2022).

Experiment [1] relates to IL-6 induced STAT3 phosphorylation. The experiment in a line: Western blot, IL-6 induced STAT3 phosphorylation in MCF7. It is filed as cell-based, human. The protocol:
Cells were harvested and lysed in cold radioimmunoprecipitation assay (RIPA) lysis buffer containing proteasome inhibitor cocktail and phosphatase inhibitor cocktail. The protein concentrations were determined using the BCA Protein Assay kit. After adding the loading buffer and boiling at 95° C. for 10 minutes, equivalent amounts of proteins were loaded on and separated by SDS-PAGE, and then were transferred to PVDF membranes. Membranes were probed with primary antibodies (1:1000) against phospho-STAT3 (Tyr705), STAT3, phospho-STAT1 (Tyr701), STAT1, phospho-STAT6 (Tyr 641), STAT6, and GAPDH, respectively, and horseradish peroxidase (HRP)-conjugated secondary antibody (1:10000) (Cell Signaling Technology, Beverly, Mass.). Membranes were analyzed using Enhanced Chemiluminescence Plus reagents and either scanned with the Storm Scanner (Amersham Pharmacia Biotech, Inc., Piscataway, N.J.) or imaged with ChemiDoc MP imaging system (Bio-Rad, Hercules, Calif.). For cytokine induction of STAT3 phosphorylation, MCF-7 breast cancer cells were seeded in 10 cm plates (1 million cells per plate) and allowed to adhere overnight followed by serum-starvation. […] After designated hours, LLM-418 treated and untreated cells were stimulated by IL-6, LIF, and OSM (50 ng/mL). The cells were harvested after 30 minutes and analyzed by Western blot.
MCF7 breast cancer cells were seeded in 10 cm plates (1 million cells per plate) and allowed to adhere overnight. The following day, the cells were serum-starved. The cells were then left untreated or treated with LLM4 (5-20 μM). After designated hours, the LLM4 treated and untreated cells were stimulated by IL-6, LIF, OSM, CNTF, CT-1, IL-11, IL-4 or INF-γ (50 ng/ml). The cells were harvested after 30 minutes and analyzed by western blotting.
Background: Immunoblotting shows a protein as a band on a membrane.

Experiment [2] deals with BxPC-3 pancreatic cancer cell line. The experiment in a line: MTT cell viability assay, BxPC-3. It counts as cell-based, human. The conditions noted are these: for IC50: Homo sapiens; for inhibitory effect compared to parent compound LLM4: BxPC-3, 25 μM, 48 hours. As for the experimental part: (§1) Human breast cancer cell lines MCF7, MDA-MB-231 and SUM159 were maintained in Dulbecco's modified Eagle medium (DMEM). Human pancreatic cancer cell line BxPC-3 was maintained in RPMI 1640 medium. Human pancreatic cancer cell line Capan-1 was maintained in Iscove's Modified Dulbecco's Medium (IMEM). All media were supplemented with 10% FBS and 1% penicillin/streptomycin, and cells were incubated in a humidified 37° C. incubator with 5% CO2. PE/CA-PJ49 cell line was purchased from external sources and maintained according to manufacturer's protocol.
(§2) Cell viability was evaluated by using the MTT assay in triple replicates in one experiment and repeated for three times. Cancer cells were seeded in 96-well plates at a density of 3,000 cells per well. The cells were incubated at 37° C. for a period of 24 hours. Escalating concentrations of IL-6/gp130 inhibitors were added in triplicate to the plates in the presence of 10% FBS. After incubation for 48 or 72 hours, a stock solution of MTT (0.5 mg/ml) was then added to each well containing the treated cells, followed by incubation at 37° C. for 3 h. After removal of medium, the MTT dye was dissolved with spectrophotometric grade DMSO and the absorbance was read at 570 nm. The IC50 value is determined by interpolation based on the absorbance value halfway between positive and negative controls. In the experiment of LLM4 showing higher efficacy in cancer cells with higher levels of IL-6, instead of using medium with 10% FBS, DMEM with 0% FBS was used in order to eliminate the influence of trace amounts of growth factors and cytokines in FBS.
On the technique in general: Tetrazolium dyes change colour on reduction, which living cells bring about.

In experiment [3] the test system is multiple myeloma cell line U266. The experiment in a line: Cell viability assay, U266. The conditions noted are these: for IC50: Homo sapiens, U-266, U266, 72 h; for inhibitory effect compared to parent compound LLM4: U266, 25 μM, 48 and 72 hours. It counts as cell-based, human. As for the experimental part: as §2
It was reported in multiple myeloma cell line U266 that IL-6 is also elevated and of great importance for cancer progression [Jernberg W, Pettersson M, Carlsson M, et al. Increase in interleukin 6 (IL-6) and IL-6 receptor expression in a human multiple myeloma cell line, U-266, during long-term in vitro culture and the development of a possible autocrine IL-6 loop 1. Leukemia. 1992, 4, 310-318]. These novel IL-6/gp130 inhibitors were tested in U266 cells at a concentration of 25 μM for an incubation time of 48 and 72 hours. MDL16 and LLM4 were used as control compounds.

Experiment [4] deals with SUM159 breast cancer cell line. The experiment is described as follows: MTT cell viability assay, SUM159. It counts as cell-based, human. The settings on record: for IC50: Homo sapiens; for inhibitory effect compared to parent compound LLM4: SUM159, 25 μM, 48 hours. As for the experimental part:
as §1
as §2, with “controls.” for “controls. In the experiment of LLM4 showing higher efficacy in cancer cells with higher levels of IL-6, instead of using medium with 10% FBS, DMEM with 0% FBS was used in order to eliminate the influence of trace amounts of growth factors and cytokines in FBS.”

The test system of a further experiment is PE/CA-PJ49 cell line. The experiment in a line: Inhibitory activity in PTPRD mutant cell line PE/CA-PJ49. It counts as cell-based. The settings on record: PE/CA-PJ49, 48 h. The protocol:
as §1, §2
Protein tyrosine […] receptor type D (PTPRD) is reported to serve as a tumor suppressor in various human cancers [Peyser et. al, PLoS One (2015) 10(8)]. PTPRD mutation is also known to be associated with increased STAT3 expression [Peyser et. al, PLoS One (2015) 10(8)]. Table 8 captures the inhibitory activities of various compounds in the PTPRD mutant cell line, PE/CA-PJ49.

The mark [5] stands for this setting: MCF7, 1-4 μM, 5 h, IL-6 50 ng/ml.

`O=C(Nc1cc(F)ccc1-n1cccc1)c1ccc(OCCCN2CCCCC2)cc1` [LLM4, N-(5-fluoro-2-(1H-pyrrol-1-yl)phenyl)-4-(3-(piperidin-1-yl)propoxy)benzamide]: in experiment [1] (MCF7, 15 μM, 2, 3 and 4 hours), the “inhibition of IL-6 induced STAT3 phosphorylation” value was “inhibit IL-6 induced STAT3 phosphorylation quite effectively”. Besides, the “inhibition of STAT3 phosphorylation induced by IL-6” value in experiment [1] (MCF7, 20 μM) was “almost complete inhibition”. In addition, in experiment [1] (MCF7, 5-20 μM, 5 h, IL-6 50 ng/ml, western blot), the “amount of P-STAT3 stimulated by IL-6” value was “decreased with increasing concentrations”. For the same molecule, the “phosphorylation of STAT3 induced by IL-6” value in experiment [1] (MCF7, treatment with 10 LLM4) is “Significant reduction”. Also, the IC50 in experiment [2] (BXPC-3, 48 h) came out at 10.9 ± 5.7 µM; in experiment [2] (BxPC-3, text b401), 3.9 µM; in experiment [3], 10.9 ± 1.5 µM; in experiment [4] (SUM159, 48 h), 14.5 ± 3.5 µM; in experiment [4] (SUM159, SUM159 human breast cancer cell line, MTT), 17 ± 5.5 µM.
Regarding `O=C(Nc1cccc(OCCN2CCCCC2)c1)Nc1cccc(-c2ccn[nH]2)c1` [LLM414, 1-(3-(1H-pyrazol-5-yl)phenyl)-3-(3-(2-(piperidin-1-yl)ethoxy)phenyl)urea], the “inhibition of IL-6 induced STAT3 phosphorylation” value in experiment [1] (setting [5]) is “inhibited STAT3 phosphorylation stimulated by IL-6 in MCF7 cells in a dose dependent manner”. Moreover, the figures for the “inhibitory effect compared to parent compound LLM4” value in experiment [2], in experiment [3] and in experiment [4] were “greater inhibitory effect”, “greater inhibitory effects” and “greater inhibitory effect”, respectively. Further, the IC50 was 8.3 µM in experiment [2] (BXPC-3, 48 h); 8.3 µM in experiment [2] (BxPC-3, Table 7); 1.9 µM in experiment [3]; 3.41 ± 0.99 µM in the experiment with PE/CA-PJ49 cell line; 2.8 µM in experiment [4] (SUM159, 48 h); 2.8 µM in experiment [4] (SUM159, SUM159, Table 7).
With `O=C(Nc1ccccc1-c1ccn[nH]1)c1ccc(OCCN2CCCCC2)cc1` [LLM418, N-(2-(1H-pyrazol-5-yl)phenyl)-4-(2-(piperidin-1-yl)ethoxy)benzamide], the “inhibition of IL-6 induced STAT3 phosphorylation” value in experiment [1] (MCF7, 4 μM, 2, 3 and 4 hours) is on record as “inhibit IL-6 induced STAT3 phosphorylation quite effectively”; in experiment [1] (setting [5]), “inhibited STAT3 phosphorylation stimulated by IL-6 in MCF7 cells in a dose dependent manner”. The “inhibitory effect compared to parent compound LLM4” value in experiment [2] is on record as “greater inhibitory effect”; in experiment [3], “greater inhibitory effects”; in experiment [4], “greater inhibitory effect”. The 50% inhibitory concentration (IC50) in experiment [2] (BXPC-3, 48 h) is 1.2 µM; in experiment [2] (BxPC-3, Table 7), 1.2 µM; in experiment [3] it was 1.2 µM; in the experiment with PE/CA-PJ49 cell line, 1.79 ± 0.48 µM; in experiment [4] (SUM159, 48 h), 1.7 µM; in experiment [4] (SUM159, SUM159, Table 7), 1.7 µM.
